According to ChEMBL document CHEMBL1201862, “PubChem BioAssay data set” (2004):
The source made the active and inactive calls.

Tests used:
[1] = biological target: T1, Heat shock factor protein 1 (Mus musculus, UniProt P38532); assay: HSF1 potentiators in luciferase reporter cells, confirmation, cell-based, NIH3T3, luminescence, dose retest (AID 435004); assay type: functional;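 further: stress induced by proteasome inhibitor MG132 added 30 min after compound; luciferase reporter driven by HSF1 response element in NIH3T3 cells; actives raise luminescence as potentiators of the MG132 stress response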
T1 sequence (P38532 whole entry): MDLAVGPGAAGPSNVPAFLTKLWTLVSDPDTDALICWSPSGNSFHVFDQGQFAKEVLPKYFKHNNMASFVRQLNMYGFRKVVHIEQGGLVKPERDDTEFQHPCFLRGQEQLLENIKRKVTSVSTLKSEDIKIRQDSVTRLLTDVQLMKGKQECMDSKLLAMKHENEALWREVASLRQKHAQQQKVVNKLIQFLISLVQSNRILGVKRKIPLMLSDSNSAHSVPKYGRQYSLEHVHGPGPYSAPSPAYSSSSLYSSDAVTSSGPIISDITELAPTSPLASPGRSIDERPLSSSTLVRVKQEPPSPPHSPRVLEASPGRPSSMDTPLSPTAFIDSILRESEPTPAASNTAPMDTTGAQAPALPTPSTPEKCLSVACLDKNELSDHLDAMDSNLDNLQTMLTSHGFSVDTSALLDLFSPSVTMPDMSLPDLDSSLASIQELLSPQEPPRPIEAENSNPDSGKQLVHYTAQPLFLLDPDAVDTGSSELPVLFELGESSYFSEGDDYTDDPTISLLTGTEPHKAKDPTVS

[2] = HepG2 cell cytotoxicity, dose response, cytotoxicity control, ATP luminescence, cherry-pick, activator set 2 (AID 1053143); assay type: functional, cell-based
[3] = system: Streptococcus; assay: Group A Streptococcus viability loss, dose response, counter-screen for streptokinase expression inhibitor project, luminescence, BacTiterGlo (AID 1915); assay type: functional, organism-based;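 further: potency for reduction of bacterial viability or growth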
[4] = biological target: T2, Streptokinase A (Streptococcus pyogenes serotype M1, UniProt P10520); assay: S. pyogenes streptokinase expression inhibitors, potency, dose response, plasminogen activation absorbance, OD405 (AID 1914); assay type: functional, Streptococcus pyogenes M1 GAS;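 further: secreted streptokinase activity via plasminogen activation per viability signal from cell pellet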
T2 sequence (P10520 whole entry): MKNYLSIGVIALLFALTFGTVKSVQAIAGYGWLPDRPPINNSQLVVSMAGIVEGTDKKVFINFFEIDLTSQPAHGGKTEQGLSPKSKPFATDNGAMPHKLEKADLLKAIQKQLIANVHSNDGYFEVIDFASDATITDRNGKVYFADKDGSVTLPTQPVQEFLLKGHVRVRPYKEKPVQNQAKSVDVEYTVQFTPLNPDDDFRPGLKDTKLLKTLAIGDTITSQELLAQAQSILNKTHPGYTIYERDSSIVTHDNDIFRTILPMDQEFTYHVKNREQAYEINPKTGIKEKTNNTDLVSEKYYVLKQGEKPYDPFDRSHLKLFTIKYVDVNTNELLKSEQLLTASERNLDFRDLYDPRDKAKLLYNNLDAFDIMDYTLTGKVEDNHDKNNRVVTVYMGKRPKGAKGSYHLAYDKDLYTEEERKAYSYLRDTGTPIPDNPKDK

[5] = biological target: Beta Lactamase (Pseudomonas aeruginosa, UniProt Q932Y6); assay: beta-lactamase reporter inhibitor potency, dose response, artefact control for TLR9-MyD88 binding inhibitor project, BLA reporter cells, FRET fluorescence (AID 588341); assay type: cell-based;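 further: cell based assay in CHO-K1 cells stably expressing beta-lactamase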
Sequence of Beta Lactamase (Q932Y6 whole entry, the tested form may be a part): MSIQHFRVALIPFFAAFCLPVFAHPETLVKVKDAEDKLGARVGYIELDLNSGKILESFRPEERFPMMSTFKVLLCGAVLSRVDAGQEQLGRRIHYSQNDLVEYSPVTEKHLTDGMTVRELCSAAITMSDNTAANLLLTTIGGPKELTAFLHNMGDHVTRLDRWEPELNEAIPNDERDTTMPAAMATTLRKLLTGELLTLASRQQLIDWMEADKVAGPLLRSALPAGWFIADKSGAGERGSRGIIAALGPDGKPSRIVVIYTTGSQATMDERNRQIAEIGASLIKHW

[6] = biological target: Photoreceptor-specific nuclear receptor (Homo sapiens, UniProt Q9Y5X4); assay type: functional, cell-based;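 further: CHO-S cells with Gal4-NCOR and VP16-NR2E3 two-hybrid luciferase reporter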
Sequence of Photoreceptor-specific nuclear receptor (Q9Y5X4 whole entry, the tested form may be a part): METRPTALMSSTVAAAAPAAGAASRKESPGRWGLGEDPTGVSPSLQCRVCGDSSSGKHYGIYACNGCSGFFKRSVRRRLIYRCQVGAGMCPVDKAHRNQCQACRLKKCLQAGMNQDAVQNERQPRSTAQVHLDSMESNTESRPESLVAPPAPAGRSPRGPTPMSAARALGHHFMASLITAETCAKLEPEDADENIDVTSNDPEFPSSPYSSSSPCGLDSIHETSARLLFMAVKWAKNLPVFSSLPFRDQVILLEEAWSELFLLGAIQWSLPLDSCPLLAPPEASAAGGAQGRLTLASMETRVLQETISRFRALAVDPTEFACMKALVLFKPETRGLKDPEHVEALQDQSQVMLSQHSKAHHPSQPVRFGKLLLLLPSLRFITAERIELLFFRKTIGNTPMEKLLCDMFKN

[7] = Late stage assay provider counterscreen for TLR9 inhibitors: absorbance-based cell-based MTT cytotoxicity assay.; assay type: functional
[8] = inhibitors of PGC1a acetylation in cells, dose response, cell-based, cherry-picked samples (AID 720514); assay type: functional;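 further: potency may reflect raised or lowered acetylation signal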
[9] = system: CHO; assay: cytotoxicity in TLR9-MyD88 CHO cells, dose response, cytotoxicity control for TLR9-MyD88 binding inhibitor project, cell-based, luminescence (AID 588339); assay type: functional, hamster; conditions: Cricetulus griseus;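 further: CHO cells stably coexpressing TLR9 and MyD88 fusions from primary screen; compound exposure lasted 48 hours before viability readout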
[10] = HEK293 Cytotoxicity Assay Measured in Cell-Based System Using Plate Reader - 7071-01_Inhibitor_Dose_CherryPick_Activity_Set2.; assay type: functional
[11] = system: HEK293; assay: HEK293T cell cytotoxicity, dose response, cytotoxicity control, ATP luminescence, cherry-pick samples (AID 687005); assay type: functional, cell-based; conditions: Homo sapiens;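 further: cells exposed to compound for 48 hours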
[12] = biological target: Potassium channel subfamily K member 3 (Homo sapiens, UniProt O14649); assay: TASK1 (KCNK3) potassium channel inhibitors, SAR follow-up, CHO cells, FluxOR thallium flux (AID 652212); assay type: functional
Sequence of Potassium channel subfamily K member 3 (O14649 whole entry): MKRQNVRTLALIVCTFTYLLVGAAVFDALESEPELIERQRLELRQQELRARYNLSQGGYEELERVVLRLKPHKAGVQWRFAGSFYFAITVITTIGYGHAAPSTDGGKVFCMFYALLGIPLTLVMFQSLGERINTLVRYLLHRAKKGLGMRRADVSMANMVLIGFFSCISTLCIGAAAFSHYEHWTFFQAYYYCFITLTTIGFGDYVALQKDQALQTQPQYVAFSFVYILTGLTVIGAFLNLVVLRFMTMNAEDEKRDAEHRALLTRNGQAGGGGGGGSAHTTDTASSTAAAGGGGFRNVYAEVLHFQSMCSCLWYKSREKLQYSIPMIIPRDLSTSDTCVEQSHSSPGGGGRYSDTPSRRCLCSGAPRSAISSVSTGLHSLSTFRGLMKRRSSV

[13] = biological target: Potassium channel subfamily K member 9 (Homo sapiens, UniProt Q9NPC2); assay: TASK3 (KCNK9) channel inhibitors, thallium flux, SAR follow-up, selectivity assay for TASK1 inhibitor project, cell-based, FluxOR thallium flux, concentration-response (AID 652211); assay type: functional;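 further: potency is for inhibitors of the channel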
Sequence of Potassium channel subfamily K member 9 (Q9NPC2 whole entry): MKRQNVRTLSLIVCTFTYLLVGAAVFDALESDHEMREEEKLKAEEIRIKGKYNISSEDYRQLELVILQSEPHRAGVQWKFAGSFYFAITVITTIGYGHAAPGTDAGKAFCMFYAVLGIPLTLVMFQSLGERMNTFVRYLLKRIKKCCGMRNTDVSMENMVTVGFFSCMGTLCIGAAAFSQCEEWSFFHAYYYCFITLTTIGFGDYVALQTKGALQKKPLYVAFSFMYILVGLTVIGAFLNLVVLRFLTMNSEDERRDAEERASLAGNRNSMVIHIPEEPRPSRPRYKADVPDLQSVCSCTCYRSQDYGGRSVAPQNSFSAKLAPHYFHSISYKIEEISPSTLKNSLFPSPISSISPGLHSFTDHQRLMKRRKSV

[14] = Late stage assay provider results from the probe development effort to identify selective inhibitors of heat shock protein 90 (HSP90): Absorbance-based cell proliferation assay in MCF7 cells.; assay type: functional
[15] = Late stage assay provider results from the probe development effort to identify selective inhibitors of heat shock protein 90 (HSP90): Absorbance-based cell proliferation assay in SKBR3 cells.; assay type: functional; conditions: SK-BR-3
[16] = IGROV1 ovarian cancer cell cytotoxicity, dose response, PAX8 inhibitor project, plate reader, dry powder samples (AID 743043); assay type: functional, cell-based; conditions: IGROV-1
[17] = IOSE-T80 ovarian epithelial cell cytotoxicity, dose response, cytotoxicity control for PAX8 inhibitor project, plate reader, dry powder samples (AID 743045); assay type: functional, cell-based
[18] = NIH:OVCAR-3 ovarian cancer cell cytotoxicity, dose response, PAX8 inhibitor project, plate reader, dry powder samples (AID 743044); assay type: functional, cell-based
[19] = cytotoxicity in COV362 ovarian cancer cells, dose response, cytotoxicity control for PAX8 inhibitor project, cell-based, plate reader, dry powder, SA12 (AID 743144); assay type: functional
[20] = cytotoxicity in OV-90 ovarian cancer cells, dose response, PAX8 inhibitor project, cell-based, plate reader, dry powder, SA8 (AID 743149); assay type: functional
[21] = PAX2 cell-based inhibition, dose response, selectivity assay for PAX8 inhibitor project, plate reader, dry powder samples (AID 743048); assay type: functional;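 further: HEK293 cells carrying a WT1 promoter luciferase reporter driven by expressed Pax2; potency is for inhibition of Pax2 driven reporter signal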
[22] = cytotoxicity in OVCAR4 cells, dose response, cytotoxicity control for PAX8 inhibitor project, cell-based, plate reader, dry powder, SA11 (AID 743150); assay type: functional; conditions: OVCAR-4
[23] = PAX5 activity inhibitors, dose response, selectivity assay for PAX8 inhibitor project, cell-based, plate reader, dry powder samples (AID 743047); assay type: functional;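 further: HEK293 cells carrying a Pax5 driven CD19 promoter luciferase reporter; potency of inhibitors that lower reporter luminescence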
[24] = cytotoxicity dependent on PAX8, dose response, cell-based, plate reader, dry powder (AID 743049); assay type: functional
[25] = cytotoxicity in COV434 cells, dose response, cytotoxicity control for PAX8 inhibitor project, cell-based, plate reader, dry powder, SA7 (AID 743145); assay type: functional

In the case of `Cn1nnc(-c2ccc(OCc3ccccc3F)cc2)n1`, the EC50 [1] is reported as > 260 µM (inactive), the AC50 [2] is reported as 26 µM (active) and the EC50 [3] is reported as > 150 µM (not active). The EC50 [4] was > 150 µM (not active).
For `COc1ccc(C[C@@H]2OC3(C=CC(=O)C=C3)O[C@H]2Cc2ccc(OC)cc2)cc1`, the IC50 [5] was 17.5 µM (inactive), the IC50 [6] was 0.149 µM (active) and the CC50 [7] was 0.48 µM (active). The AC50 [8] was 0.756 µM (active) and the IC50 [9] was 0.597 µM (active).
In the case of `COc1ccc(NC(=O)Nc2ccc3c(c2)C(=O)N([C@H](C)CO)C[C@H](C)[C@H](CN(C)C(=O)Cc2ccccc2)OCCCC[C@H](C)O3)cc1`, the AC50 [10] is reported as 25.4 µM (active) and the AC50 [11] is reported as 25.4 µM (active).
In the case of `CCOc1ccccc1NC(=O)c1cccc(NC(=O)c2cccc(C(F)(F)F)c2)c1`, the IC50 [12] is reported as 0.232 µM (active) and the IC50 [13] is reported as 1.38 µM (active).
With `COc1c[nH]c(C(=O)Nc2ccc(C(C)C)cc2)cc1=O` the IC50 [14] was > 100 µM (inactive) and the IC50 [15] was > 100 µM (inactive).
In the case of `N#C[C@@H]1[C@@H](c2ccc(C#Cc3ccccc3F)cc2)[C@@H](CO)N1C(=O)C1CCCC1`, the AC50 [16] is reported as 47.3 µM (active), the AC50 [17] is reported as 27 µM (active) and the AC50 [18] is reported as 29.7 µM (active). For the same compound, the AC50 [19] was 48.5 µM (active), the AC50 [20] was 35.3 µM (active) and the AC50 [21] was 16.5 µM (active). For the same compound, the AC50 [22] was 44.3 µM (active), the AC50 [23] was 18.1 µM (active) and the AC50 [24] was 11.9 µM (active). For the same compound, the AC50 [25] was 10.9 µM (active).
